Data: patent publication US9233088B2, “Use of glutamate, glutamate derivatives or metabolites, glutamate analogues or mixtures thereof for the manufacture of a composition for the treatment of osteoporosis” (Protista Biotechnology AB, priority 2001, dated 2016)
Residues, ends and D or L forms follow the SMILES beside them.

Key:
postmenopausal women = conditions: Gynecol. Endocrinol. 7:201-205 (1993); cited from earlier work
piglets [1] = assay: Growth (bodyweight) and bone mineralisation during postnatal life of the pig; type: in vivo
Description: (§1) All piglets suckled sow milk before weaning. After weaning at the age of 28 days piglets were fed ad libitum with a standard mixture Premix prestarter (PP) (Food plant-Motycz, Poland) and free access to water was allowed. Piglets were allotted to three experimental trials:
(§2) 2—Second group, receiving 0.4 g/kg/b.w. of L-alanyl-L-glutamine (ala-gln), (2 ml solution/kg b.w.)
(§3) At the age of 35 days, piglets were sacrificed, eviscerated and bones were sampled.

piglets [2] = assay: Three point bending test (Instron 4302) of bones from piglets given AKG or Ala-Gln orally; type: in vivo, pig; conditions: for Bone ultimate strength (Wf) femur: piglets 35 days of postnatal life, 0.4 g/kg b.w. oral once a day
Description: as §1, §2
(§4) Different parameters are used for defining and measuring the bone quality according to the invention. Used parameters are known to the skilled man in the art and are explained below: • 1) Maximum elastic strength measures the load, in Newtons (N), at […]. • 2) Ultimate strength measures the load, in Newtons (N), at […] of the bone. • 3) Cross-sectional area is the measure of the bone area on the cross section, in mm^2. • 4) Second moment of inertia is the measurement of the efficiency of the cross-sectional geometry to resist bending force, expressed in mm^4. • 5) Mean relative wall thickness is the wall thickness of the bone to its lumen. • 6) Bone mineral density (BMD) expresses the mineral content of the bone expressed in g/cm^2.
as §3
Using Instron 4302 apparatus and applying three point bending test as presented in FIG. 1, the following properties of the bones were determined from curves showing the relation between load and deflection:
1) maximum elastic strength, Wy
4) maximum elastic deflection.

piglets [3] = assay: Architectural and geometric properties of bones from piglets given AKG or Ala-Gln orally; type: in vivo, pig; conditions: piglets 35 days, 0.4 g/kg b.w. oral, mean ± SEM
Description: as §1, §2, §4, §3
Architectural and geometric properties of bone were estimated based on measurements of horizontal and vertical cross section as well as interior and exterior diameter of the bone.
Mean relative wall thickness (MRWT) expresses the ratio of wall to lumen measures and serves as an indicator in the process of architectural adaptation of bone to physiological stress during the growth of the body. When the lumen increases with unchanged wall thickness the MRWT decreases but bone resistance to strain increases.

ovariectomized rats = assay: Femur bone mineral density in intact, shame operated and ovariectomized osteopenic female rats given AKG in drinking water; type: in vivo, Wistar rats; conditions: all three groups (INT, SHO, OVX), 60 days drinking water with AKG, p<0.01 in all groups
Description: 60 female Wistar rats at the age of 2 months and with an initial bodyweight of 200 g are used.
The animals are maintained in controlled conditions of 12/12 h dark/light ratio at 22° C.±2 and at 55%±2 humidity with free access to food and water.
The rats are divided into three groups (n=20), where Group 1 is shame operated, Group 2 is ovariectomized and Group 3 is intact, i.e. not operated at all.
On the day of surgery, all rats are anaesthetised with an intramuscular injection of ketamine and xylaline.
20 of the rats are shame-operated (SHO), where the ovaries are exteriorised and replaced intact.
The second group of ovariectomized rats (OVX) are submitted to ovariectomy from a dorsal approach.
Six months after ovariectomy, the animals from group 1 and 2, are divided into two additional sub-groups; one placebo and one experimental group.
After 60 days with placebo and experimental drinking water the rats are anaesthetised in CO2 and femur isolated for further analysis of bone mineral density.

turkeys = assay: Ulna bone mineral density (DEXA) after fracture and neurectomy in the turkey; type: in vivo; conditions: group A, 0.8 g/kg oral
Excerpt: Turkeys are kept in common cages, 10 turkeys/cage. The turkeys have free access to water and are fed ad libitum.

[4] = ribs 4-9, piglets 35 days, 0.4 g/kg b.w. oral, mean ± SEM

| Molecule | Increase in bone mineral density (postmenopausal women) | Bodyweight difference, day 14 (piglets [1]; day 14, control group always less than Ala-Gln group) | Bodyweight difference, day 21 (piglets [1]; day 21, control group always less than Ala-Gln group) | Bodyweight difference, day 35 (piglets [1]; day 35, control group always less than Ala-Gln group) | Bodyweight difference, day three (piglets [1]; day three of postnatal life, control group always less than Ala-Gln group) | Bone ultimate strength (Wf) femur (piglets [2]; mean ± SEM) | Bone maximum elastic strength (Wy) (ribs 4-9) (piglets [2]; [4]) | Moment of ultimate strength ribs (4-9) (piglets [2]; [4]) | Ultimate strength (Wf) (ribs 4-9) (piglets [2]; [4]) | Cross-sectional area (A) femur (piglets [3]; femur) | Second moment of inertia (Ix) femur (piglets [3]; femur) | Cross-sectional area (A) humerus (piglets [3]) | Cross sectional area (A) (ribs 4-9) (piglets [3]; ribs 4-9) | Second moment of inertia (ribs 4-9) (piglets [3]; ribs 4-9) | Yielding stress of the 5th rib (piglets [2]; 5th rib, 35-days-old piglets, versus control) | BMD difference between the AKG treated rats and the placebo treated rats (ovariectomized rats) | BMD of the ulna bone, difference compared to the saline treated turkeys (turkeys; left wing control (intact), p<0.01) | BMD of the ulna bone, AKG effect compared to the saline treated turkeys (turkeys; right wing experimental (neurectomized, fracture of the ulnae), p<0.055) |
| --- | --- | --- | --- | --- | --- | --- | --- | --- | --- | --- | --- | --- | --- | --- | --- | --- | --- | --- |
| L-glutamine calcium monofluorophospate | 4.25% |  |  |  |  |  |  |  |  |  |  |  |  |  |  |  |  |  |
| C[C@H](N)C(=O)N[C@@H](CCC(N)=O)C(=O)O [Ala-Gln, L-alanyl-L-glutamine] (H-Ala-Gln-OH) |  | about 690 g | about 419 g | about 313 g | about 96 g | 1075.0 ± 28.16 N | 442.9 ± 15.32 N | 625.24 ± 1.5 ∇ N | 450.2 ± 22.1 N | 60.1 ± 2.59 * mm^2 | 492.8 ± 12.81 ∇ mm^4 | 52.2 ± 2.48 * mm^2 | 9.62 ± 0.33 mm^2 | 10.88 ± 0.55 mm^4 |  |  |  |  |
| α-keto-glutaric sodium salt [AKG] |  |  |  |  |  | 1123.0 ± 75.09 N |  |  |  | 64.7 ± 3.82 * mm^2 |  | 52.7 ± 4.1 * mm^2 |  |  | significant increase | about 10% | 25% | about 11% |
